From the supplement of paper PMC9663587

Experiments:
Flavopiridol = compound: CN1CC[C@H](c2c(O)cc(O)c3c(=O)cc(-c4ccccc4Cl)oc23)[C@H](O)C1 [Flavopiridol]; experiment: increase in dead-cell fraction, 72 h; higher = more death;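 note: breast cancer cell lines in 384-well plates, stained with Hoechst plus LIVE/DEAD far red dye and imaged, cells above an LDR intensity threshold counted dead, Hoechst-negative corpses included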
[1] = compound: CCc1cnn2c(NCc3ccc[n+]([O-])c3)cc(N3CCCC[C@H]3CCO)nc12; experiment: as above
[2] = compound: CCN1CCN(Cc2ccc(Nc3ncc(F)c(-c4cc(F)c5nc(C)n(C(C)C)c5c4)n3)nc2)CC1; experiment: as above
BSJ-03-123 = compound: CC(=O)c1c(C)c2cnc(Nc3ccc(N4CCN(CCOCCOCCOCCNC(=O)COc5cccc6c5C(=O)N(C5CCC(=O)NC5=O)C6=O)CC4)cn3)nc2n(C2CCCC2)c1=O [BSJ-03-123]; experiment: as above
THZ1 = compound: CN(C)C/C=C/C(=O)Nc1ccc(C(=O)Nc2cccc(Nc3ncc(Cl)c(-c4c[nH]c5ccccc45)n3)c2)cc1 [THZ1]; experiment: as above
[3] = compound: CC(=O)c1c(C)c2cnc(Nc3ccc(N4CCNCC4)cn3)nc2n(C2CCCC2)c1=O; experiment: as above
LEE011/Ribociclib = compound: CN(C)C(=O)c1cc2cnc(Nc3ccc(N4CCNCC4)cn3)nc2n1C1CCCC1 [LEE011/Ribociclib]; experiment: as above
Neratinib/HKI272 = compound: CCOc1cc2ncc(C#N)c(Nc3ccc(OCc4ccccn4)c(Cl)c3)c2cc1NC(=O)/C=C/CN(C)C [Neratinib/HKI272]; experiment: as above
AZD6738 = compound: C[C@@H]1COCCN1c1cc(C2([S@](C)(=N)=O)CC2)nc(-c2cc[nH]c3nccc2-3)n1 [AZD6738]
Tivantinib/ARQ197 = compound: O=C1NC(=O)[C@@H](c2cn3c4c(cccc24)CCC3)[C@@H]1c1c[nH]c2ccccc12 [Tivantinib/ARQ197]
[4] = compound: CCC1=CN=CN=C1N2CCN(CC2)CC3=NC4=C(N3)C=C(C=C4)C(F)(F)F
AZD2014 = compound: CNC(=O)c1cccc(-c2ccc3c(N4CCOC[C@@H]4C)nc(N4CCOC[C@@H]4C)nc3n2)c1 [AZD2014]
Vorinostat = compound: O=C(CCCCCCC(=O)Nc1ccccc1)NO [Vorinostat]
Ipatasertib/GDC0068 = compound: CC(C)NC[C@@H](C(=O)N1CCN(c2ncnc3c2[C@H](C)C[C@H]3O)CC1)c1ccc(Cl)cc1 [Ipatasertib/GDC0068]
[5] = compound: CCN1CCN(Cc2ccc(Nc3ncc(F)c(-c4cc(F)c5nc(C)n(C(C)C)c5c4)n3)nc2)CC1
[6] = compound: CC(=O)Nc1cccc(-n2c(=O)n(C3CC3)c(=O)c3c(Nc4ccc(I)cc4F)n(C)c(=O)c(C)c32)c1
[7] = compound: COc1ccc2c(c1)[C@]1(C[C@H]1c1ccc3c(/C=C/c4ccc(CN5C[C@@H](C)O[C@@H](C)C5)cc4)n[nH]c3c1)C(=O)N2
AZD7762 = compound: NC(=O)Nc1cc(-c2cccc(F)c2)sc1C(=O)N[C@H]1CCCNC1 [AZD7762]
BSJ-01-175 = compound: CN(C)C/C=C/C(=O)Nc1ccc(O[C@@H]2CCC[C@@H](Nc3ncc(Cl)c(-c4c[nH]c5ccccc45)n3)C2)cc1 [BSJ-01-175]
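Throughout, for GR50, 72 h: breast cancer and non-malignant breast epithelial cell lines, Deep Dye Drop or Dye Drop imaging, nine half-log doses, GR normalized to time-zero plates and DMSO-only controls.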

Cell Line: SKBR3
- increase in dead-cell fraction (Flavopiridol; 0.0001 µM): -0.0025
- increase in dead-cell fraction (Flavopiridol; 0.0003162 µM): -0.0004
- increase in dead-cell fraction (Flavopiridol; 0.001 µM): 0.0053
- increase in dead-cell fraction (Flavopiridol; 0.003162 µM): -0.001
- increase in dead-cell fraction (Flavopiridol; 0.01 µM): -0.0038
- increase in dead-cell fraction (Flavopiridol; 0.03162 µM): -0.0082
- increase in dead-cell fraction (Flavopiridol; 0.1 µM): 0.0051
- increase in dead-cell fraction (Flavopiridol; 0.3162 µM): 0.0663
- increase in dead-cell fraction (Flavopiridol; 1 µM): 0.417
- increase in dead-cell fraction ([1]; 0.0001 µM): 0.0102
- increase in dead-cell fraction ([1]; 0.0003162 µM): 0.0115
- increase in dead-cell fraction ([1]; 0.001 µM): 0.0049
- increase in dead-cell fraction ([1]; 0.003162 µM): 0.011
- increase in dead-cell fraction ([1]; 0.01 µM): 0.303
- increase in dead-cell fraction ([1]; 0.03162 µM): 0.574
- increase in dead-cell fraction ([1]; 0.1 µM): 0.595
- increase in dead-cell fraction ([1]; 0.3162 µM): 0.612
- increase in dead-cell fraction ([1]; 1 µM): 0.583
- increase in dead-cell fraction ([2]; 0.001 µM): 0.0059
- increase in dead-cell fraction ([2]; 0.003162 µM): 0.003
- increase in dead-cell fraction ([2]; 0.01 µM): 0.0233
- increase in dead-cell fraction ([2]; 0.03162 µM): 0.0346
- increase in dead-cell fraction ([2]; 0.1 µM): 0.0399
- increase in dead-cell fraction ([2]; 0.3162 µM): 0.0362
- increase in dead-cell fraction ([2]; 1 µM): 0.0582
- increase in dead-cell fraction ([2]; 3.162 µM): 0.0358
- increase in dead-cell fraction ([2]; 10 µM): 0.0879
- increase in dead-cell fraction (BSJ-03-123; 0.001 µM): -0.001
- increase in dead-cell fraction (BSJ-03-123; 0.003162 µM): 0.0008
- increase in dead-cell fraction (BSJ-03-123; 0.01 µM): 0.0041
- increase in dead-cell fraction (BSJ-03-123; 0.03162 µM): -0.0049
- increase in dead-cell fraction (BSJ-03-123; 0.1 µM): 0.0076
- increase in dead-cell fraction (BSJ-03-123; 0.3162 µM): -0.0004
- increase in dead-cell fraction (BSJ-03-123; 1 µM): 0.0088
- increase in dead-cell fraction (BSJ-03-123; 3.162 µM): 0.0136
- increase in dead-cell fraction (BSJ-03-123; 10 µM): 0.15
- increase in dead-cell fraction (THZ1; 0.0001 µM): -0.0092
- increase in dead-cell fraction (THZ1; 0.0003162 µM): 0.0042
- increase in dead-cell fraction (THZ1; 0.001 µM): 0.0058
- increase in dead-cell fraction (THZ1; 0.003162 µM): -0.0046
- increase in dead-cell fraction (THZ1; 0.01 µM): -0.0004
- increase in dead-cell fraction (THZ1; 0.03162 µM): 0.0505
- increase in dead-cell fraction (THZ1; 0.1 µM): 0.237
- increase in dead-cell fraction (THZ1; 0.3162 µM): 0.33
- increase in dead-cell fraction (THZ1; 1 µM): 0.491
- increase in dead-cell fraction ([3]; 0.0003162 µM): -0.0013
- increase in dead-cell fraction ([3]; 0.001 µM): 0.0036
- increase in dead-cell fraction ([3]; 0.003162 µM): 0.0075
- increase in dead-cell fraction ([3]; 0.01 µM): 0.015
- increase in dead-cell fraction ([3]; 0.03162 µM): 0.0198
- increase in dead-cell fraction ([3]; 0.1 µM): 0.0318
- increase in dead-cell fraction ([3]; 0.3162 µM): 0.0437
- increase in dead-cell fraction ([3]; 1 µM): 0.0364
- increase in dead-cell fraction ([3]; 3.162 µM): 0.0469
- increase in dead-cell fraction (LEE011/Ribociclib; 0.001 µM): -0.0002
- increase in dead-cell fraction (LEE011/Ribociclib; 0.003162 µM): -0.0049
- increase in dead-cell fraction (LEE011/Ribociclib; 0.01 µM): 0.0112
- increase in dead-cell fraction (LEE011/Ribociclib; 0.03162 µM): 0.0071
- increase in dead-cell fraction (LEE011/Ribociclib; 0.1 µM): 0.0105
- increase in dead-cell fraction (LEE011/Ribociclib; 0.3162 µM): 0.0092
- increase in dead-cell fraction (LEE011/Ribociclib; 1 µM): 0.0206
- increase in dead-cell fraction (LEE011/Ribociclib; 3.162 µM): 0.0182
- increase in dead-cell fraction (LEE011/Ribociclib; 10 µM): 0.0119
- increase in dead-cell fraction (Neratinib/HKI272; 0.0003162 µM): 0.0178
- increase in dead-cell fraction (Neratinib/HKI272; 0.001 µM): 0.0381
- increase in dead-cell fraction (Neratinib/HKI272; 0.003162 µM): 0.111
- increase in dead-cell fraction (Neratinib/HKI272; 0.01 µM): 0.156
- increase in dead-cell fraction (Neratinib/HKI272; 0.03162 µM): 0.222
- increase in dead-cell fraction (Neratinib/HKI272; 0.1 µM): 0.24
- increase in dead-cell fraction (Neratinib/HKI272; 0.3162 µM): 0.303
- increase in dead-cell fraction (Neratinib/HKI272; 1 µM): 0.362
- increase in dead-cell fraction (Neratinib/HKI272; 3.162 µM): 0.364
- GR50, 72 h (AZD6738): 0.845 µM
- GR50, 72 h (Tivantinib/ARQ197): 0.273 µM
- GR50, 72 h [4]: > 10 µM
- GR50, 72 h (AZD2014): < 0.001 µM
- GR50, 72 h (Vorinostat): 0.767 µM
- GR50, 72 h (Ipatasertib/GDC0068): 3.32 µM
- GR50, 72 h [5]: 0.0353 µM
- GR50, 72 h [6]: > 1 µM
- GR50, 72 h [7]: 0.00188 µM
- GR50, 72 h (AZD7762): 0.0203 µM
- GR50, 72 h (BSJ-01-175): 0.00832 µM
